Tests used:
Type in all cases: cell-based
[1] = test system: SNU-16 (FGFR2-amplification) cells; test: cell proliferation assay (CellTiterGlo), SNU-16 cells; details: Homo sapiens, 72 hours
Method in brief: (§1)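 To assess antiproliferative activity, plated cells receive test compound across a concentration range, with DMSO as vehicle control. Remaining viable cells are quantified from intracellular ATP by luminescence. Growth relative to vehicle-treated cells gives the IC50.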

[2] = test system: UM-UC-14 (FGFR3-S249C) cells; test: cell proliferation assay (CellTiterGlo), UM-UC-14 cells
Method in brief: as §1

[3] = test system: RT-112 (FGFR3-Tacc3 fusion) cells; test: cell proliferation assay (CellTiterGlo), RT-112 cells; details: Homo sapiens, RT-112, RT112 cells, 72 hours
Method in brief: as §1

[4] = test system: DMS-114 (FGFR1 overexpression) cells; test: cell proliferation assay (CellTiterGlo), DMS-114 cells; details: Homo sapiens
Method in brief: as §1

IC50 [1] | SMILES | IC50 ([2]; UMUC14, 72 h) | IC50 [3] | IC50 ([4]; DMS-114, 72 h) | IC50 ([2]; UMUC14, 72 hours) | IC50 ([4]; 72 hours)
< 20 nM | Cc1nc2ccc(Oc3ccc4ncc(-c5cnn([C@H]6C[C@@H](N7CCOCC7)C6)c5)nc4c3Cl)cc2[nH]1 [Compound 323] | 20 to 100 nM | 20 to 100 nM | ≥ 400 nM |  | 
20 to 100 nM | Cc1nc2ccc(Oc3ccc4ncc(-c5cnn([C@H]6C[C@H](N7CCOCC7)C6)c5)nc4c3Cl)cc2[nH]1 [Compound 324] | 20 to 100 nM | 20 to 100 nM | ≥ 400 nM |  | 
< 20 nM | Cc1nc2ccc(Oc3ccc4ncc(-c5cnn(CC6CC(O)C6)c5)nc4c3Cl)cc2[nH]1 (centres unmarked) [Compound 325] | 20 to 100 nM | < 20 nM | ≥ 400 nM |  | 
20 to 100 nM | Cc1nc2ccc(Oc3ccc4ncc(-c5cnn(CC(N)=O)c5)nc4c3Cl)cc2[nH]1 [Compound 326] | 100 to 400 nM | 100 to 400 nM | ≥ 400 nM |  | 
< 20 nM | Cc1nc2ccc(Oc3ccc4ncc(-c5cnn(CC6CCC(=O)CC6)c5)nc4c3Cl)cc2[nH]1 [Compound 327] | < 20 nM | < 20 nM | ≥ 400 nM |  | 
20 to 100 nM | Cc1nc2ccc(Oc3ccc4ncc(-c5cnn(CC6CC7CC6CN7C(N)=O)c5)nc4c3Cl)cc2[nH]1 (centres unmarked) [Compound 328] | 20 to 100 nM | 20 to 100 nM | ≥ 400 nM |  | 
< 20 nM | Cc1nc2ccc(Oc3ccc4ncc(-c5cnn(CC6CC7CC6CN7CC(N)=O)c5)nc4c3Cl)cc2[nH]1 (centres unmarked) [Compound 329] | < 20 nM | < 20 nM | 100 to 400 nM |  | 
< 20 nM | Cc1nc2ccc(Oc3ccc4ncc(-c5cnn(C6CCN(CC(N)=O)CC6)c5)nc4c3Cl)cc2[nH]1 [Compound 330] | 20 to 100 nM | < 20 nM | ≥ 400 nM |  | 
< 20 nM | Cc1nc2ccc(Oc3ccc4ncc(-c5cnn(C6CC7CC6CN7C6COC6)c5)nc4c3Cl)cc2[nH]1 (centres unmarked) [Compound 331] | 20 to 100 nM | < 20 nM | ≥ 400 nM |  | 
20 to 100 nM | Cc1nc2cc(Oc3ccc4ncc(-c5cnn(CC(=O)N6CCC(F)(F)CC6)c5)nc4c3Cl)ccc2[nH]1 [Compound 332] | 20 to 100 nM | 20 to 100 nM | ≥ 400 nM |  | 
20 to 100 nM | Cc1nc2ccc(Oc3ccc4ncc(-c5cnn(C6CCN(C(C)C)CC6)c5)nc4c3Cl)cc2[nH]1 [Compound 333] | 20 to 100 nM | 20 to 100 nM | ≥ 400 nM |  | 
≥ 400 nM | Cc1nc2ccc(Oc3c(C)cc4ncc(-c5cnn(CC6CCN(C)CC6)c5)nc4c3Cl)cc2[nH]1 [Compound 334] | ≥ 400 nM | ≥ 400 nM | ≥ 400 nM |  | 
20 to 100 nM | CO[C@H]1CC[C@H](Cn2cc(-c3cnc4ccc(Oc5ccc6nc(C)[nH]c6c5)c(Cl)c4n3)cn2)CC1 [Compound 335] | 20 to 100 nM | 20 to 100 nM | ≥ 400 nM |  | 
20 to 100 nM | CO[C@H]1CC[C@@H](Cn2cc(-c3cnc4ccc(Oc5ccc6nc(C)[nH]c6c5)c(Cl)c4n3)cn2)CC1 [Compound 336] | 20 to 100 nM | 20 to 100 nM | ≥ 400 nM |  | 
20 to 100 nM | Cc1nc2ccc(Oc3ccc4ncc(-c5cnn(C[C@]67C[C@H](CO6)C7)c5)nc4c3Cl)cc2[nH]1 [Compound 337] | 20 to 100 nM | 20 to 100 nM | ≥ 400 nM |  | 
20 to 100 nM | Cc1nc2ccc(Oc3ccc4ncc(-c5cnn(CC6CCC(N(C)C)CC6)c5)nc4c3Cl)cc2[nH]1 (centres unmarked) [Compound 338] | 20 to 100 nM | 20 to 100 nM | 100 to 400 nM |  | 
< 20 nM | Cc1nc2ccc(Oc3ccc4ncc(-c5cnn(CC6CCC(O)CC6)c5)nc4c3Cl)cc2[nH]1 (centres unmarked) [Compound 339] | < 20 nM | < 20 nM | 100 to 400 nM |  | 
< 20 nM | Cc1nc2ccc(Oc3ccc4ncc(-c5cnn(C6CCN(C7COC7)CC6)c5)nc4c3Cl)cc2[nH]1 [Compound 340] | 20 to 100 nM | < 20 nM | 100 to 400 nM |  | 
≥ 400 nM | Clc1c(Oc2ccn3cncc3c2)ccc2ncc(-c3cnn(CC4CCNCC4)c3)nc12 [Compound 341] | ≥ 400 nM | ≥ 400 nM | ≥ 400 nM |  | 
20 to 100 nM | Cc1nc2ccc(Oc3ccc4ncc(-c5cnn(C6CC7CC6CN7C(C)C)c5)nc4c3Cl)cc2[nH]1 (centres unmarked) [Compound 342] | 20 to 100 nM | 20 to 100 nM | ≥ 400 nM |  | 

IC50 [1] | SMILES | IC50 ([2]; UMUC14, 72 h) | IC50 [3] | IC50 ([4]; DMS-114, 72 h) | IC50 ([2]; UMUC14, 72 hours) | IC50 ([4]; 72 hours)
< 20 nM | Cc1nc2ccc(Oc3ccc4ncc(-c5cnn(CC67COC(C6)C7)c5)nc4c3Cl)cc2[nH]1 [Compound 343] | 20 to 100 nM | < 20 nM | ≥ 400 nM |  | 
≥ 400 nM | Cc1cc2cc(Oc3ccc4ncc(-c5cnn(CC6CCN(C)CC6)c5)nc4c3Cl)ccn2n1 [Compound 345] | ≥ 400 nM | ≥ 400 nM | ≥ 400 nM |  | 
20 to 100 nM | Cc1nc2ccc(Oc3ccc4ncc(-c5cnn(C6CC7(C6)OCCO7)c5)nc4c3Cl)cc2[nH]1 [Compound 346] | 20 to 100 nM | 20 to 100 nM | ≥ 400 nM |  | 
20 to 100 nM | C=CCn1cc(-c2cnc3ccc(Oc4ccc5nc(C)[nH]c5c4)c(Cl)c3n2)cn1 [Compound 347] | 100 to 400 nM | 20 to 100 nM | ≥ 400 nM |  | 
≥ 400 nM | Cc1nc2ccc(Oc3ccc4ncc(-c5cnn(CC(=O)NCCO)c5)nc4c3Cl)cc2[nH]1 [Compound 348] | ≥ 400 nM | 100 to 400 nM | ≥ 400 nM |  | 
≥ 400 nM | Cc1nc2cc(Oc3ccc4ncc(-c5cnn(CC6(O)CCNCC6)c5)nc4c3Cl)ccc2[nH]1 [Compound 349] | ≥ 400 nM | ≥ 400 nM | ≥ 400 nM |  | 
100 to 400 nM | Cc1nc2ccc(Oc3ccc4ncc(-c5cnn(CCNCCO)c5)nc4c3Cl)cc2[nH]1 [Compound 350] | 100 to 400 nM | 20 to 100 nM | ≥ 400 nM |  | 
20 to 100 nM | Cc1nc2ccc(Oc3ccc4ncc(-c5cnn(C6CC7CC6CN7C)c5)nc4c3Cl)cc2[nH]1 (centres unmarked) [Compound 351] | 20 to 100 nM | 20 to 100 nM | 100 to 400 nM |  | 
≥ 400 nM | Cc1nc2ccc(Oc3ccc4ncc(-c5cnn(CC6(C)COC6)c5)nc4c3Cl)cc2[nH]1 [Compound 352] | ≥ 400 nM | ≥ 400 nM | ≥ 400 nM |  | 
20 to 100 nM | Cc1nc2ccc(Oc3ccc4ncc(-c5cnn(C6CC7CC6CN7)c5)nc4c3Cl)cc2[nH]1 (centres unmarked) [Compound 353] | 20 to 100 nM | 20 to 100 nM | ≥ 400 nM |  | 
20 to 100 nM | Cc1nc2ccc(Oc3ccc4ncc(-c5cnn(CC6CCN(C(N)=O)CC6)c5)nc4c3Cl)cc2[nH]1 [Compound 354] | 20 to 100 nM | < 20 nM | 100 to 400 nM |  | 
20 to 100 nM | Cc1nc2ccc(Oc3ccc4ncc(-c5cnn([C@H]6CC[C@H](N7CCC7)CC6)c5)nc4c3Cl)cc2[nH]1 [Compound 355] | 20 to 100 nM | 20 to 100 nM | 100 to 400 nM |  | 
20 to 100 nM | Cc1nc2ccc(Oc3ccc4ncc(-c5cnn([C@H]6CC[C@@H](N7CCC7)CC6)c5)nc4c3Cl)cc2[nH]1 [Compound 356] | 20 to 100 nM | 20 to 100 nM | 100 to 400 nM |  | 
20 to 100 nM | Cc1nc2ccc(Oc3ccc4ncc(-c5cnn(CC6(C)CCOC6)c5)nc4c3Cl)cc2[nH]1 (centres unmarked) [Compound 357] | 20 to 100 nM | 20 to 100 nM | ≥ 400 nM |  | 
20 to 100 nM | Cc1nc2ccc(Oc3ccc4ncc(-c5cnn(C6CCC(F)(F)CC6)c5)nc4c3Cl)cc2[nH]1 [Compound 358] | 100 to 400 nM | 100 to 400 nM | ≥ 400 nM |  | 
20 to 100 nM | Cc1nc2ccc(Oc3ccc4ncc(-c5cnn(C(C)(C)CO)c5)nc4c3Cl)cc2[nH]1 [Compound 359] | 20 to 100 nM | 20 to 100 nM | ≥ 400 nM |  | 
20 to 100 nM | Cc1nc2ccc(Oc3ccc4ncc(-c5cnn([C@H]6CCN(C7COC7)C[C@@H]6F)c5)nc4c3Cl)cc2[nH]1 [Compound 360] | 20 to 100 nM | 20 to 100 nM | ≥ 400 nM |  | 
20 to 100 nM | Cc1nc2ccc(Oc3ccc4ncc(-c5cnn(CC6C7COCC76)c5)nc4c3Cl)cc2[nH]1 (centres unmarked) [Compound 365] | 20 to 100 nM | 20 to 100 nM | ≥ 400 nM |  | 
20 to 100 nM | Cc1nc2ccc(Oc3ccc4ncc(-c5cnn(CC6CCC(S(C)(=O)=O)CC6)c5)nc4c3Cl)cc2[nH]1 (centres unmarked) [Compound 366] | 20 to 100 nM | 20 to 100 nM | ≥ 400 nM |  | 

SMILES | IC50 [1] | IC50 ([2]; UMUC14, 72 h) | IC50 [3] | IC50 ([4]; DMS-114, 72 h) | IC50 ([2]; UMUC14, 72 hours) | IC50 ([4]; 72 hours)
Cc1nc2ccc(Oc3ccc4ncc(-c5cnn(CC6CN6)c5)nc4c3Cl)cc2[nH]1 (centres unmarked) [Compound 344] | 100 to 400 nM |  | 100 to 400 nM |  | 100 to 400 nM | ≥ 400 nM
Cc1nc2ccc(Oc3ccc4ncc(-c5cnn([C@@H]6C[C@H]7CC[C@@H](C6)N7)c5)nc4c3Cl)cc2[nH]1 [Compound 361] | 100 to 400 nM | 20 to 100 nM | 20 to 100 nM | 100 to 400 nM |  | 
Cc1nc2ccc(Oc3ccc4ncc(-c5cnn([C@H]6C[C@H]7CC[C@@H](C6)N7)c5)nc4c3Cl)cc2[nH]1 [Compound 362] | 20 to 100 nM | 20 to 100 nM | 20 to 100 nM | 100 to 400 nM |  | 
Cc1nc2ccc(Oc3ccc4ncc(-c5cnn([C@@H]6C[C@H]7CC[C@@H](C6)N7C)c5)nc4c3Cl)cc2[nH]1 [Compound 363] | 20 to 100 nM | 20 to 100 nM | 20 to 100 nM | ≥ 400 nM |  | 
Cc1nc2ccc(Oc3ccc4ncc(-c5cnn([C@H]6C[C@H]7CC[C@@H](C6)N7C)c5)nc4c3Cl)cc2[nH]1 [Compound 364] | 20 to 100 nM | < 20 nM | < 20 nM | 100 to 400 nM |  | 
